Source: PubChem BioAssay AID1845216 (Molecular Pharmacology Branch, DTP, NCI, 2023)

Test system: SW 982 tumor spheroid viability
Assay: Anticancer human tumor SW 982 cell line growth inhibition;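 also: spheroids exposed to compound for 7 days before readout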
Conditions: spheroids with HUVEC and MSC; for IC50: curve of first compound; for viability, T/C: stronger effect = lower value
Procedure, shortened: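 Complex spheroids of malignant cells with endothelial cells and mesenchymal stem cells; agents alone or combined, from near clinical Cmax (or 10 microM if unknown) down in half-log steps, 0.25% DMSO final.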

[1] = second compound 1 µM, first compound 0.0316 µM
[2] = second compound 1 µM, first compound 0.1 µM
[3] = second compound 1 µM, first compound 0.316 µM
[4] = second compound 1 µM, first compound 1 µM
[5] = second compound 1 µM, first compound 3.16 µM
[6] = second compound 1 µM, first compound 10 µM
[7] = second compound 3.16 µM, first compound 0.0316 µM
[8] = second compound 3.16 µM, first compound 0.1 µM
[9] = second compound 3.16 µM, first compound 0.316 µM
[10] = second compound 3.16 µM, first compound 1 µM
[11] = second compound 3.16 µM, first compound 3.16 µM
[12] = second compound 3.16 µM, first compound 10 µM
[13] = second compound 10 µM, first compound 0.0316 µM
[14] = second compound 10 µM, first compound 0.1 µM
[15] = second compound 10 µM, first compound 0.316 µM
[16] = second compound 10 µM, first compound 1 µM
[17] = second compound 10 µM, first compound 3.16 µM
[18] = second compound 10 µM, first compound 10 µM
[19] = second compound 31.6 µM, first compound 0.0316 µM
[20] = second compound 31.6 µM, first compound 0.1 µM
[21] = second compound 31.6 µM, first compound 0.316 µM
[22] = second compound 31.6 µM, first compound 1 µM
[23] = second compound 31.6 µM, first compound 3.16 µM
[24] = second compound 31.6 µM, first compound 10 µM
[25] = second compound 100 µM, first compound 0.0316 µM
[26] = second compound 100 µM, first compound 0.1 µM
[27] = second compound 100 µM, first compound 0.316 µM
[28] = second compound 100 µM, first compound 1 µM
[29] = second compound 100 µM, first compound 3.16 µM
[30] = second compound 100 µM, first compound 10 µM

| SMILES | IC50 (second compound 1 µM) [µM] | IC50 (second compound 3.16 µM) [µM] | IC50 (second compound 10 µM) [µM] | IC50 (second compound 31.6 µM) [µM] | IC50 (second compound 100 µM) [µM] | viability, T/C [1] [%] | viability, T/C [2] [%] | viability, T/C [3] [%] | viability, T/C [4] [%] | viability, T/C [5] [%] | viability, T/C [6] [%] | viability, T/C [7] [%] | viability, T/C [8] [%] | viability, T/C [9] [%] | viability, T/C [10] [%] | viability, T/C [11] [%] | viability, T/C [12] [%] | viability, T/C [13] [%] | viability, T/C [14] [%] | viability, T/C [15] [%] | also measured |
| --- | --- | --- | --- | --- | --- | --- | --- | --- | --- | --- | --- | --- | --- | --- | --- | --- | --- | --- | --- | --- | --- |
| CC(C)n1c(=O)n(C)c2cnc3cc(F)c(-c4ccc(OCCCN5CCCCC5)nc4)cc3c21 + Cn1nnc2c(C(N)=O)ncn2c1=O | > 10 | 7.44 | 4.91 | 3.72 | 1.88 | 91.7 | 91.3 | 91.5 | 85.4 | 68.1 | 56.7 | 91 | 84 | 85.8 | 84.2 | 66.4 | 44.3 | 75.2 | 75.5 | 78.5 | viability, T/C [16]: 72.7%; viability, T/C [17]: 55.8%; viability, T/C [18]: 40.6%; viability, T/C [19]: 68.3%; viability, T/C [20]: 70%; viability, T/C [21]: 68.8%; viability, T/C [22]: 62%; viability, T/C [23]: 52.5%; viability, T/C [24]: 35%; viability, T/C [25]: 55.1%; viability, T/C [26]: 57.4%; viability, T/C [27]: 55.2%; viability, T/C [28]: 54%; viability, T/C [29]: 46.4%; viability, T/C [30]: 37% |
| CC1COCCN1c1cc(-c2ccnn2C)c2ccnc(-c3ccn[nH]3)c2n1 (stereo not given) + Cn1nnc2c(C(N)=O)ncn2c1=O | < 0.0316 | < 0.0316 | < 0.0316 | < 0.0316 | < 0.0316 | 32.4 | 20.4 | 17.3 | 15.4 | 19.2 | 23 | 26.9 | 17 | 15.8 | 17 | 19.7 | 22.5 | 21.1 | 16.6 | 13 | viability, T/C [16]: 13.3%; viability, T/C [17]: 22.9%; viability, T/C [18]: 20.3%; viability, T/C [19]: 20.6%; viability, T/C [20]: 15.8%; viability, T/C [21]: 13.1%; viability, T/C [22]: 11.8%; viability, T/C [23]: 12.5%; viability, T/C [24]: 18.2%; viability, T/C [25]: 15%; viability, T/C [26]: 12.8%; viability, T/C [27]: 10.3%; viability, T/C [28]: 9.31%; viability, T/C [29]: 11.1%; viability, T/C [30]: 14.6% |
| COc1cc(C)[nH]c(=O)c1CN1CCc2c(Cl)cc(C(OC)C3COC3)c(Cl)c2C1=O (stereo not given) + Cn1nnc2c(C(N)=O)ncn2c1=O | > 10 | > 10 | > 10 | > 10 | > 10 | 101 | 103 | 103 | 113 | 101 | 99.7 | 94.3 | 92.4 | 96 | 102 | 100 | 93.1 | 81.8 | 83.5 | 86.2 | viability, T/C [16]: 88.3%; viability, T/C [17]: 85.8%; viability, T/C [18]: 78.3%; viability, T/C [19]: 71.1%; viability, T/C [20]: 71.7%; viability, T/C [21]: 70.4%; viability, T/C [22]: 78.8%; viability, T/C [23]: 70%; viability, T/C [24]: 69.1%; viability, T/C [25]: 58.6%; viability, T/C [26]: 62.3%; viability, T/C [27]: 65%; viability, T/C [28]: 64.3%; viability, T/C [29]: 64.6%; viability, T/C [30]: 61.9% |
| COc1ccc([C@@H](O)c2cc(-c3ncnc4cc(N5CCOCC5)ccc34)c(F)cc2Cl)nn1 + Cn1nnc2c(C(N)=O)ncn2c1=O | 6.29 | 3.83 | 4.03 | 1.18 | 0.283 | 90.6 | 95.4 | 93.3 | 84.9 | 81.6 | 29.6 | 76.7 | 83.8 | 90.1 | 70.4 | 55.9 | 26 | 76.9 | 70 | 73 | viability, T/C [16]: 57.6%; viability, T/C [17]: 63.2%; viability, T/C [18]: 18.4%; viability, T/C [19]: 63.5%; viability, T/C [20]: 63.2%; viability, T/C [21]: 60.4%; viability, T/C [22]: 51.5%; viability, T/C [23]: 38.5%; viability, T/C [24]: 25.5%; viability, T/C [25]: 59.9%; viability, T/C [26]: 57.9%; viability, T/C [27]: 48.1%; viability, T/C [28]: 39.3%; viability, T/C [29]: 32.5%; viability, T/C [30]: 15.6% |
| Cc1cc(C)c(CNC(=O)c2cc(-c3ccc(CN4CCOCC4)cc3)cc3c2cnn3C2CCCC2)c(=O)[nH]1 + Cn1nnc2c(C(N)=O)ncn2c1=O | > 10 | > 10 | > 10 | > 10 | > 10 | 102 | 104 | 103 | 103 | 92.1 | 91.2 | 88.4 | 99.2 | 101 | 96.6 | 92.3 | 70.6 | 86.7 | 82.6 | 81.3 | viability, T/C [16]: 82.8%; viability, T/C [17]: 82.2%; viability, T/C [18]: 53.4%; viability, T/C [19]: 73.8%; viability, T/C [20]: 69%; viability, T/C [21]: 74.9%; viability, T/C [22]: 73.5%; viability, T/C [23]: 74.4%; viability, T/C [24]: 58.7%; viability, T/C [25]: 58.9%; viability, T/C [26]: 63%; viability, T/C [27]: 57.7%; viability, T/C [28]: 63.5%; viability, T/C [29]: 55.3%; viability, T/C [30]: 53.8% |
| [2H]c1nc(C)nc([2H])c1-c1cc(NC[C@@H](C)c2cccc3c(C(=O)NC)ccnc23)ncn1 + Cn1nnc2c(C(N)=O)ncn2c1=O | > 10 | > 10 | > 10 | > 10 | > 10 | 100 | 102 | 92.6 | 103 | 106 | 82.3 | 92.6 | 86.4 | 96 | 86.8 | 63.9 | 55.1 | 83.8 | 76 | 78.5 | viability, T/C [16]: 80.7%; viability, T/C [17]: 71.7%; viability, T/C [18]: 59.8%; viability, T/C [19]: 69.5%; viability, T/C [20]: 76.2%; viability, T/C [21]: 76.8%; viability, T/C [22]: 72.5%; viability, T/C [23]: 76.5%; viability, T/C [24]: 71.2%; viability, T/C [25]: 63.5%; viability, T/C [26]: 63.4%; viability, T/C [27]: 58%; viability, T/C [28]: 60.9%; viability, T/C [29]: 56.9%; viability, T/C [30]: 60.7% |
